From paper PMC5513037, “Examining the influence of specificity ligands and ATP-competitive ligands on the overall effectiveness of bivalent kinase inhibitors” (Proteome Science, 2017)

Legend:
Test in all cases: KAM-matrix competition in K562 lysate;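 as to 0.001 uM KAM: median log10 fold change of treatment over DMSO control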;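 as to 0.01 uM KAM: median log10 fold change of treatment over DMSO control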;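 as to 0.1 uM KAM: median log10 fold change of treatment over DMSO control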;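 as to 1 uM KAM: median log10 fold change of treatment over DMSO control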;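 as to 10 uM KAM: median log10 fold change of treatment over DMSO control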
Type in all cases: binding
STK26 = biological target: T1, STK26 (Homo sapiens, UniProt Q9P289)
T1 construct: endogenous in cells; host or cells: K562
T1 sequence (Q9P289 whole entry): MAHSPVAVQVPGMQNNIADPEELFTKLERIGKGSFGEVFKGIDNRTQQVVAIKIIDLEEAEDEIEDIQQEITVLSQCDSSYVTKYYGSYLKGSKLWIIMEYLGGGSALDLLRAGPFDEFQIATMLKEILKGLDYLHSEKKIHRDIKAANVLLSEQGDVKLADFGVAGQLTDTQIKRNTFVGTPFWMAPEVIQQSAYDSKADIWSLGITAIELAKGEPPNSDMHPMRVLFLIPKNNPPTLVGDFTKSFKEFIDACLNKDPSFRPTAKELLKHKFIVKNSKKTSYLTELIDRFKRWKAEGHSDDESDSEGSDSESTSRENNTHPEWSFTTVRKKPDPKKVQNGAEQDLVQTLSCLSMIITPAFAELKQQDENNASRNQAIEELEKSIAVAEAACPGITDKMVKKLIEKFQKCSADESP
Method: (§1) Supplement 12953_2017_125_MOESM1_ESM.zip/MS_Supp Info.xlsx, sheet "KAM" | column: 10 uM KAM; 1 uM KAM; 0.1 uM KAM; 0.01 uM KAM; 0.001 uM KAM; RB50

BUB1B = biological target: T2, BUB1B (Homo sapiens, UniProt O60566);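 as to 0.001 uM KAM: median log10 fold change of treatment over DMSO control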;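 as to 0.01 uM KAM: median log10 fold change of treatment over DMSO control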;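 as to 0.1 uM KAM: median log10 fold change of treatment over DMSO control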;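 as to 1 uM KAM: median log10 fold change of treatment over DMSO control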;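 as to 10 uM KAM: median log10 fold change of treatment over DMSO control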
T2 construct: endogenous in cells; host or cells: K562
Method: as §1

ROCK2 = biological target: T3, ROCK2 (Homo sapiens, UniProt O75116);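 as to 0.001 uM KAM: median log10 fold change of treatment over DMSO control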;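 as to 0.01 uM KAM: median log10 fold change of treatment over DMSO control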;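 as to 0.1 uM KAM: median log10 fold change of treatment over DMSO control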;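 as to 1 uM KAM: median log10 fold change of treatment over DMSO control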;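 as to 10 uM KAM: median log10 fold change of treatment over DMSO control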
T3 construct: endogenous in cells; host or cells: K562
Method: as §1

MAP3K7 = biological target: T4, MAP3K7 (Homo sapiens, UniProt O43318)
T4 construct: endogenous in cells; host or cells: K562 cells (lysate)
T4 sequence (O43318 1-606): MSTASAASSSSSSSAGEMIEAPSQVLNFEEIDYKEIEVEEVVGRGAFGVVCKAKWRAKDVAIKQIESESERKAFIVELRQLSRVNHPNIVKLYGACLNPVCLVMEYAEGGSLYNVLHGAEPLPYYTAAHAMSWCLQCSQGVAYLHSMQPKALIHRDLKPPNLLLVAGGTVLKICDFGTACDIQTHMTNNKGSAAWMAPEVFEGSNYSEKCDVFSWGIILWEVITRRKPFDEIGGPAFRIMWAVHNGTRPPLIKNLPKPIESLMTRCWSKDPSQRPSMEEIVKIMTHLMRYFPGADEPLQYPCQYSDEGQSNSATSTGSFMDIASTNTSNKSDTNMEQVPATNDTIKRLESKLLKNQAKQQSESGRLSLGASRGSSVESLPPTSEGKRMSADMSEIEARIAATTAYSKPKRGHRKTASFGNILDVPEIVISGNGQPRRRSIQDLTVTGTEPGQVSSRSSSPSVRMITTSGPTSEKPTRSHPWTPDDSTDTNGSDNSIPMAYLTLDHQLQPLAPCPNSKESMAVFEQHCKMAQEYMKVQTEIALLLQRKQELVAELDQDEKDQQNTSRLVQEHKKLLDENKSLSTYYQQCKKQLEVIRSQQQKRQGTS
Method: as §1

PKD1 = biological target: T5, PKD1 (Homo sapiens, UniProt P98161);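 as to 0.001 uM KAM: median log10 fold change of treatment over DMSO control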;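 as to 0.01 uM KAM: median log10 fold change of treatment over DMSO control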;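 as to 0.1 uM KAM: median log10 fold change of treatment over DMSO control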;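 as to 1 uM KAM: median log10 fold change of treatment over DMSO control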;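 as to 10 uM KAM: median log10 fold change of treatment over DMSO control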
T5 construct: endogenous in cells; host or cells: K562
Method: as §1

PDPK1 = biological target: T6, PDPK1 (Homo sapiens, UniProt O15530);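 as to 0.001 uM KAM: median log10 fold change of treatment over DMSO control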;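 as to 0.01 uM KAM: median log10 fold change of treatment over DMSO control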;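 as to 0.1 uM KAM: median log10 fold change of treatment over DMSO control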;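 as to 1 uM KAM: median log10 fold change of treatment over DMSO control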;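 as to 10 uM KAM: median log10 fold change of treatment over DMSO control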
T6 construct: endogenous in cells; host or cells: K562
T6 sequence (O15530 1-556): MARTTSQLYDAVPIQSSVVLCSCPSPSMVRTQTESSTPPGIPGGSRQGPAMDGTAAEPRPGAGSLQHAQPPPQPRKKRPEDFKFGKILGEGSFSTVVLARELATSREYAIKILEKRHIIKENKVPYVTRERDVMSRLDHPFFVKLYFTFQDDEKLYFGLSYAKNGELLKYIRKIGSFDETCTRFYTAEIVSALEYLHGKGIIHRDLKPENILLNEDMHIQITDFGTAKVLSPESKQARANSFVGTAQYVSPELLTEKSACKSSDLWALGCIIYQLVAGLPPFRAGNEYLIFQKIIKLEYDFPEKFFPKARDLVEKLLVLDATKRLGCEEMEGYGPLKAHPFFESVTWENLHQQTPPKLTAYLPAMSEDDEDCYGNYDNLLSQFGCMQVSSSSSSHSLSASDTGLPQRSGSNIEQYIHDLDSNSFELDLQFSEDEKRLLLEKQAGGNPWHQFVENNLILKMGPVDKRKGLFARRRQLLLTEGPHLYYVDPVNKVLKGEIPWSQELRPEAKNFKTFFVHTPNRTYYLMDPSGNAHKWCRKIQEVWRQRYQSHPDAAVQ
Method: as §1

FGFR3 = biological target: T7, FGFR3 (Homo sapiens, UniProt P22607)
T7 construct: endogenous in cells; host or cells: K562
T7 sequence (P22607 23-806): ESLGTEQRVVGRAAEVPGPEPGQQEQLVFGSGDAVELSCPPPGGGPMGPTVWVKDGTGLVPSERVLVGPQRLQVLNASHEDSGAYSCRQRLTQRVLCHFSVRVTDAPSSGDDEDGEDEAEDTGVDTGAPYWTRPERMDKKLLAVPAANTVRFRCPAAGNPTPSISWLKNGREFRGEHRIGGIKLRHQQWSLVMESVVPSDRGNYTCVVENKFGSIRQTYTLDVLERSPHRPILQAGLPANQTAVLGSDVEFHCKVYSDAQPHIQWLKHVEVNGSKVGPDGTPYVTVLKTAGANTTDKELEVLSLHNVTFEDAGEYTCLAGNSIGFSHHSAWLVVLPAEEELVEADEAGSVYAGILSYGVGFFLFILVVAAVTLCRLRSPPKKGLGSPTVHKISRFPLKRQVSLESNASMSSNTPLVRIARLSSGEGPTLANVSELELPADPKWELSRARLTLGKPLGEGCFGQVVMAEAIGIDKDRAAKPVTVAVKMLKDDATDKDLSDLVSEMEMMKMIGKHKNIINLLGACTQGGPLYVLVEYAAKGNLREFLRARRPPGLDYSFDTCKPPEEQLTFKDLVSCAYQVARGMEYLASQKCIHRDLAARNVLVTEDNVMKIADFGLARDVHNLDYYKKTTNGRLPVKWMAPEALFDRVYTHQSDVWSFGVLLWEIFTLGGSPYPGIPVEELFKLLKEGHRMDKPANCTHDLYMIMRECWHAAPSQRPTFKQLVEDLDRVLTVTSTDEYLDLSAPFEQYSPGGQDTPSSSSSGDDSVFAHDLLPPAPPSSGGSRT
Method: as §1

ROCK1 = biological target: T8, ROCK1 (Homo sapiens, UniProt Q13464);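 as to 0.001 uM KAM: median log10 fold change of treatment over DMSO control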;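 as to 0.01 uM KAM: median log10 fold change of treatment over DMSO control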;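 as to 0.1 uM KAM: median log10 fold change of treatment over DMSO control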;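 as to 1 uM KAM: median log10 fold change of treatment over DMSO control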;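 as to 10 uM KAM: median log10 fold change of treatment over DMSO control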
T8 construct: endogenous in cells; host or cells: K562
Method: as §1

LIMK1 = LIMK1 (Homo sapiens, UniProt P53667);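 as to 0.001 uM KAM: median log10 fold change of treatment over DMSO control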;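 as to 0.01 uM KAM: median log10 fold change of treatment over DMSO control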;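 as to 0.1 uM KAM: median log10 fold change of treatment over DMSO control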;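 as to 1 uM KAM: median log10 fold change of treatment over DMSO control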;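 as to 10 uM KAM: median log10 fold change of treatment over DMSO control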
Method: as §1

ABL2 = biological target: T9, ABL2 (Homo sapiens, UniProt P42684)
T9 construct: endogenous in cells; host or cells: K562
T9 sequence (P42684 whole entry): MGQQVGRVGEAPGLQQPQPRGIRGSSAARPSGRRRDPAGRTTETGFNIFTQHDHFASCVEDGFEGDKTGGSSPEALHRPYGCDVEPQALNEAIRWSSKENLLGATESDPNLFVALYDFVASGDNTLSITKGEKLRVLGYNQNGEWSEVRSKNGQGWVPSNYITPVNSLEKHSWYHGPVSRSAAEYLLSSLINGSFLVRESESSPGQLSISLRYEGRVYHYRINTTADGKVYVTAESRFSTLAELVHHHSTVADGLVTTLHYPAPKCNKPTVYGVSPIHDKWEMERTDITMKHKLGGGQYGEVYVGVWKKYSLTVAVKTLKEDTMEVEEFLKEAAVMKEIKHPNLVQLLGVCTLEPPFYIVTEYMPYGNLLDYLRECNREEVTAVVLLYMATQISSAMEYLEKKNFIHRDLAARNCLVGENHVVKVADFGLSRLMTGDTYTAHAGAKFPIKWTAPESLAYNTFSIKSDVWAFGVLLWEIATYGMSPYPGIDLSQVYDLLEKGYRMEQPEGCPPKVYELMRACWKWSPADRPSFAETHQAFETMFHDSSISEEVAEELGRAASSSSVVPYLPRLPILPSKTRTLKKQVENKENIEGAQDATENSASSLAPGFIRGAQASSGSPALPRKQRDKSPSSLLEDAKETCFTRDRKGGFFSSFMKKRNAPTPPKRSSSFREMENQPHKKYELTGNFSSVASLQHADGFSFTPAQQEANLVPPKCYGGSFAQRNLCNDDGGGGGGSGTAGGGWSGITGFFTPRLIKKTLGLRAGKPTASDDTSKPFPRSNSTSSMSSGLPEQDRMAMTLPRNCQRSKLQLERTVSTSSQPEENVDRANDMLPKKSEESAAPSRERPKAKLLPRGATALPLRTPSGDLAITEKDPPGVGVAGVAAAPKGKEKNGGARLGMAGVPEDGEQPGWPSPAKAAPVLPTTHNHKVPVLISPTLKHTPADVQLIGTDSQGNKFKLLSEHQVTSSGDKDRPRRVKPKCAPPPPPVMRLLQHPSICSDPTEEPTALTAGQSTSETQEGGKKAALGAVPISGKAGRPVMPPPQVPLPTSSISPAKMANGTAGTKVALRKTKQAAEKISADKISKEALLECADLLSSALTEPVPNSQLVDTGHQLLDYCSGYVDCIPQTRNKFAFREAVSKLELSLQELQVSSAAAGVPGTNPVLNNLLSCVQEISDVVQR
Method: as §1

MAST3 = biological target: T10, MAST3 (Homo sapiens, UniProt O60307)
T10 construct: endogenous in cells; host or cells: K562 cells (lysate)
T10 sequence (O60307 whole entry): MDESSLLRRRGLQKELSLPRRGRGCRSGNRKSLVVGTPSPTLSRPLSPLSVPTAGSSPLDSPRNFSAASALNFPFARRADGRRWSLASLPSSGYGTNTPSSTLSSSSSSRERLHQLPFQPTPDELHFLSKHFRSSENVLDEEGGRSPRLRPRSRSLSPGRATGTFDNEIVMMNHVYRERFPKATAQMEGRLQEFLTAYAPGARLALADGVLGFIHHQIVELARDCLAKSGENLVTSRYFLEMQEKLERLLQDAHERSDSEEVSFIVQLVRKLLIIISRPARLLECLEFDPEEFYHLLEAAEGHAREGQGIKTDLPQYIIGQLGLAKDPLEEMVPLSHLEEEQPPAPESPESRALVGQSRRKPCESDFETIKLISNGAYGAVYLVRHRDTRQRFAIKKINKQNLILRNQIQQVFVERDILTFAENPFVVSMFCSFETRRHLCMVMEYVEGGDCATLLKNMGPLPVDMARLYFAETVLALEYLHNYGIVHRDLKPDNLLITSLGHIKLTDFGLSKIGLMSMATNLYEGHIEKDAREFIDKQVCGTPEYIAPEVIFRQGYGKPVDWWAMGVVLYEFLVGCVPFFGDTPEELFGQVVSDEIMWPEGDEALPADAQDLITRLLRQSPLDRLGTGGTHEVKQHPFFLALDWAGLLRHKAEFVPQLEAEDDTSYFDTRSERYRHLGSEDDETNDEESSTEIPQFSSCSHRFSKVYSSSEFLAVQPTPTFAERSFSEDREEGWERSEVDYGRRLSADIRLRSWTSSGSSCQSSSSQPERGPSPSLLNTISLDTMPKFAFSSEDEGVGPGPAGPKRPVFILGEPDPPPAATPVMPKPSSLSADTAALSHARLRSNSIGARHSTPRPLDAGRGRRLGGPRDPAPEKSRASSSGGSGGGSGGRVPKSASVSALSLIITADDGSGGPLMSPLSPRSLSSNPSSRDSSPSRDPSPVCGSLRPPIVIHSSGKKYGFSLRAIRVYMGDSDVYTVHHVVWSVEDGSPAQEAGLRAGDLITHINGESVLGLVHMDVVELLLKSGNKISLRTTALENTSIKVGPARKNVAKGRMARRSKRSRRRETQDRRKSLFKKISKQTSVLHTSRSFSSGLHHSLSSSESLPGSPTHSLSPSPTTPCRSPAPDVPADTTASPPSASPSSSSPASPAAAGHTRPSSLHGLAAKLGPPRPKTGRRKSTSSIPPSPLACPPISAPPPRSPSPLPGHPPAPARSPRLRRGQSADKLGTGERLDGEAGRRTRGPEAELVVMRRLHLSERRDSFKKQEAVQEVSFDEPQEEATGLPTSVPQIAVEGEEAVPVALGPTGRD
Method: as §1

PTK2 = biological target: T11, PTK2 (Homo sapiens, UniProt Q05397)
T11 construct: endogenous in cells; host or cells: K562
T11 sequence (Q05397 whole entry): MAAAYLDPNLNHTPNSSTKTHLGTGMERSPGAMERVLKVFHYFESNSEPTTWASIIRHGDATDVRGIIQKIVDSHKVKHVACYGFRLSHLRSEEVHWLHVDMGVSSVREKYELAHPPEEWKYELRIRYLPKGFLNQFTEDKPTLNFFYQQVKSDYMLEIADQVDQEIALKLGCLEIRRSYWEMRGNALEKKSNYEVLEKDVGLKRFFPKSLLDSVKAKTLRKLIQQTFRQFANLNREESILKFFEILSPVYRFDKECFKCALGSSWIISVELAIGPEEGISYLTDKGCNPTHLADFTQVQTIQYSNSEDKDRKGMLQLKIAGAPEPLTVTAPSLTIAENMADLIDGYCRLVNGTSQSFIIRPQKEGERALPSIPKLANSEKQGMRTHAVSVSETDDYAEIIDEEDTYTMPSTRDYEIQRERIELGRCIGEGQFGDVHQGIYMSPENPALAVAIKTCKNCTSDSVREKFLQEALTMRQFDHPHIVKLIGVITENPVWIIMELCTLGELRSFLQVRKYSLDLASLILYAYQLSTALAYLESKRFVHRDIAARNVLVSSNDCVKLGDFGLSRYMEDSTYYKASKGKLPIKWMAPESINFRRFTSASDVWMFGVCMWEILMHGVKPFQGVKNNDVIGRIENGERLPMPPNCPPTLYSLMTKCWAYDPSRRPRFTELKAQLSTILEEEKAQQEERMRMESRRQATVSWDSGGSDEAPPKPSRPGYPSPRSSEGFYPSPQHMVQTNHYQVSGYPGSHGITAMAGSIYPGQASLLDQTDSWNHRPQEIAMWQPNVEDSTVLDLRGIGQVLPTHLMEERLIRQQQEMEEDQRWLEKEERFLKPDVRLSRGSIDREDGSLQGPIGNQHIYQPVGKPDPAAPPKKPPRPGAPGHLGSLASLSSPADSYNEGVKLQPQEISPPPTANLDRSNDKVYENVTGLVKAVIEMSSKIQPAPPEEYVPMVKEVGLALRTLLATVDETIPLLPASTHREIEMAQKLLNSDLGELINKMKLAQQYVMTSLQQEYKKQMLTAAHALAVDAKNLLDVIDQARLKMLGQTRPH
Method: as §1

[1] = read-out: RB50 (the source's name)
[2] = KAM 0.001-10 uM, read-out: RB50 (the source's name)

For `N#CCc1ccc(Nc2nc(NCCCN)cc(Nc3cc(C4CC4)[nH]n3)n2)cc1` [KAM], the “median Log10 fold change” value (STK26; 0.001 uM KAM) was -0.05178, the “median Log10 fold change” value (STK26; 0.01 uM KAM) was -0.01072 and the “median Log10 fold change” value (STK26; 0.1 uM KAM) was -0.2654. The “median Log10 fold change” value (STK26; 1 uM KAM) was -0.4176, the “median Log10 fold change” value (STK26; 10 uM KAM) was -0.5788 and the IC50 (STK26; [1]) was 249 nM. The IC50 (BUB1B; [2]) was > 10000 nM, the “0.001 uM KAM” value (BUB1B; relative to 0 uM KAM = 0) was -0.0187 and the “0.01 uM KAM” value (BUB1B; relative to 0 uM KAM = 0) was -0.008778. For the same molecule, the “0.1 uM KAM” value (BUB1B; relative to 0 uM KAM = 0) was -0.0591, the “1 uM KAM” value (BUB1B; relative to 0 uM KAM = 0) was -0.007813 and the “10 uM KAM” value (BUB1B; relative to 0 uM KAM = 0) was -0.008689. The IC50 (ROCK2; [2]) was > 10000 nM, the “0.001 uM KAM” value (ROCK2; relative to 0 uM KAM = 0) was 0.005547 and the “0.01 uM KAM” value (ROCK2; relative to 0 uM KAM = 0) was 0.004918. For the same molecule, the “0.1 uM KAM” value (ROCK2; relative to 0 uM KAM = 0) was -0.08686, the “1 uM KAM” value (ROCK2; relative to 0 uM KAM = 0) was -0.1587 and the “10 uM KAM” value (ROCK2; relative to 0 uM KAM = 0) was -0.127. The “median Log10 fold change” value (MAP3K7; 0.001 uM KAM) was -0.02589, the “median Log10 fold change” value (MAP3K7; 0.01 uM KAM) was -0.01486 and the “median Log10 fold change” value (MAP3K7; 0.1 uM KAM) was -0.1357. For the same molecule, the “median Log10 fold change” value (MAP3K7; 1 uM KAM) was -0.3563, the “median Log10 fold change” value (MAP3K7; 10 uM KAM) was -0.511 and the IC50 (MAP3K7; [1]) was 786 nM. For the same molecule, the IC50 (PKD1; [2]) was > 10000 nM, the “0.001 uM KAM” value (PKD1; relative to 0 uM KAM = 0) was -0.05857 and the “0.01 uM KAM” value (PKD1; relative to 0 uM KAM = 0) was 0.006072. For the same molecule, the “0.1 uM KAM” value (PKD1; relative to 0 uM KAM = 0) was -0.01241, the “1 uM KAM” value (PKD1; relative to 0 uM KAM = 0) was -0.0439 and the “10 uM KAM” value (PKD1; relative to 0 uM KAM = 0) was 0.04844. The IC50 (PDPK1; [2]) was > 10000 nM, the “0.001 uM KAM” value (PDPK1; relative to 0 uM KAM = 0) was -0.001927 and the “0.01 uM KAM” value (PDPK1; relative to 0 uM KAM = 0) was -0.01199. The “0.1 uM KAM” value (PDPK1; relative to 0 uM KAM = 0) was -0.03413, the “1 uM KAM” value (PDPK1; relative to 0 uM KAM = 0) was -0.1736 and the “10 uM KAM” value (PDPK1; relative to 0 uM KAM = 0) was -0.2461. For the same molecule, the “median Log10 fold change” value (FGFR3; 0.001 uM KAM) was 0.01443, the “median Log10 fold change” value (FGFR3; 0.01 uM KAM) was 0.001015 and the “median Log10 fold change” value (FGFR3; 0.1 uM KAM) was -0.1738. For the same molecule, the “median Log10 fold change” value (FGFR3; 1 uM KAM) was -0.319, the “median Log10 fold change” value (FGFR3; 10 uM KAM) was -0.3424 and the IC50 (FGFR3; [1]) was 1160 nM. For the same molecule, the IC50 (ROCK1; [2]) was > 10000 nM, the “0.001 uM KAM” value (ROCK1; relative to 0 uM KAM = 0) was -0.0607 and the “0.01 uM KAM” value (ROCK1; relative to 0 uM KAM = 0) was -0.006672. The “0.1 uM KAM” value (ROCK1; relative to 0 uM KAM = 0) was -0.08063, the “1 uM KAM” value (ROCK1; relative to 0 uM KAM = 0) was -0.07367 and the “10 uM KAM” value (ROCK1; relative to 0 uM KAM = 0) was -0.1223. The IC50 (LIMK1; [2]) was > 10000 nM, the “0.001 uM KAM” value (LIMK1; relative to 0 uM KAM = 0) was -0.03519 and the “0.01 uM KAM” value (LIMK1; relative to 0 uM KAM = 0) was -0.04768. The “0.1 uM KAM” value (LIMK1; relative to 0 uM KAM = 0) was -0.0434, the “1 uM KAM” value (LIMK1; relative to 0 uM KAM = 0) was 0.03552 and the “10 uM KAM” value (LIMK1; relative to 0 uM KAM = 0) was -0.3303. For the same molecule, the “median Log10 fold change” value (ABL2; 0.001 uM KAM) was -0.03166, the “median Log10 fold change” value (ABL2; 0.01 uM KAM) was -0.02797 and the “median Log10 fold change” value (ABL2; 0.1 uM KAM) was -0.1724. For the same molecule, the “median Log10 fold change” value (ABL2; 1 uM KAM) was -0.2861, the “median Log10 fold change” value (ABL2; 10 uM KAM) was -0.4205 and the IC50 (ABL2; [1]) was 1220 nM. For the same molecule, the “median Log10 fold change” value (MAST3; 0.001 uM KAM) was -0.04433, the “median Log10 fold change” value (MAST3; 0.01 uM KAM) was -0.01527 and the “median Log10 fold change” value (MAST3; 0.1 uM KAM) was -0.1684. For the same molecule, the “median Log10 fold change” value (MAST3; 1 uM KAM) was -0.3441, the “median Log10 fold change” value (MAST3; 10 uM KAM) was -0.4667 and the IC50 (MAST3; [1]) was 784 nM. For the same molecule, the “median Log10 fold change” value (PTK2; 0.001 uM KAM) was 0.001005, the “median Log10 fold change” value (PTK2; 0.01 uM KAM) was -0.00785 and the “median Log10 fold change” value (PTK2; 0.1 uM KAM) was -0.1794. The “median Log10 fold change” value (PTK2; 1 uM KAM) was -0.5062, the “median Log10 fold change” value (PTK2; 10 uM KAM) was -0.5675 and the IC50 (PTK2; [1]) was 335 nM.
